This note sets out measurements from publication PMC8069832, “New Amides and Phosphoramidates Containing Selenium: Studies on Their Cytotoxicity and Antioxidant Activities in Breast Cancer” (Antioxidants, 2021).

Data set [1] relates to CCRF-CEM. In words: cells. To be noted: Homo sapiens, 48 h; for activity at 10 µM: read-out: Cell growth (%) CCRF-CEM.
The subject of data set [2] is MCF-7. As to the kind of experiment: cells. To be noted: Homo sapiens, MCF7, 48 h; for activity at 10 µM: read-out: Cell growth (%) MCF-7.
The test system of data set [3] is HT-29. In words: cells. To be noted: Homo sapiens, HT-29, 48 h; for activity at 10 µM: read-out: Cell growth (%) HT-29.
Data set [4] relates to HTB-54. In words: cells. The data set is classed as cell-based. To be noted: Homo sapiens. The procedure: (§1) Cell lines were provided by the European Collection of Cell Cultures (ECACC) or by the American Type Culture Collection (ATCC). Seven cell lines were used: MCF-7 (breast adenocarnicoma), 184B5 (nonmalignant, mammary gland derived), CCRF-CEM (lymphoblastic leukemia), HT-29 (colon carcinoma), HTB-54 (lung carcinoma), BEAS-2B (nonmalignant, derived from the bronchial epithelium) and PC-3 (prostate carcinoma). MCF-7, CCRF-CEM, HT-29, HTB-54, BEAS-2B and PC-3 cell lines were grown in RPMI medium (Gibco) supplemented with 10% fetal bovine serum (FBS; Gibco), 100 units/mL penicillin and […] streptomycin (Gibco). 184B5 cells were grown in DMEM/F12 medium supplemented with 5% FBS, 1 × ITS (Lonza), 100 nM hydrocortisone (Aldich), 2 mM sodium pyruvate (Lonza), 20 ng/mL EGF (Sigma-Aldrich), 0.3 nM trans-retinoic acid (Sigma-Aldrich), 100 units/mL penicillin and […] streptomycin. Cells were maintained at 37 °C and 5% CO2.
(§2) The cytotoxic effect of each substance was tested by the MTT method. Each compound was initially dissolved in DMSO at a concentration of 0.01 M, and serial dilutions were prepared with nonsupplemented medium. The cytotoxic effect of each compound was tested at 50 and 10 µM as a first screening. […]
(§3) A total of 1 × 10^4 cells/well in 96-well plates were treated with increasing concentrations of the corresponding compounds for 48 h at 37 °C in a humidified atmosphere containing 5% CO2. Then, cells were incubated with 50 µL of MTT (2 mg/mL stock) for 4 h. The medium was then removed by aspiration, and the formazan crystals were dissolved in […] of DMSO. […] Data were obtained from at least 3 independent experiments performed in quadruplicate. The standard error of the means (SEM) for the cytotoxic parameters was calculated applying the standard deviation formula to the mean values of each parameter for the three independent experiments performed.
(§4) . Cisplatin was used as a standard drug. […]. […] The presence of electron-withdrawing groups (-NO2, -CF3, -Cl) in the phenyl ring favored the cytotoxic activity in the amides, but in the phosphoramidates, the best results were obtained for aliphatic chains methoxy (II.1b, II.2b) and ethoxy (II.1d, II.2d). […].

The subject of data set [5] is PC-3. As to the kind of experiment: cells. Format: cell-based. To be noted: Homo sapiens. The procedure: as §1, §2, §3, §4
Data set [6] can be described thus: MTT cytotoxicity in nonmalignant bronchial epithelium cells. The data set is classed as cell-based. To be noted: human. As to the method: as §1, §2, §3, §4
(§5) The lack of selectivity toward cancerous cells is one of the major issues during the discovery and development of new anticancer agents. Therefore, we evaluated the cytotoxic activity of our compounds against two cell lines derived from nonmalignant breast tissue (184B5) and no malignant bronchial epithelium (BEAS-2B) (Table 2). […].

Data set [7] deals with BEAS-2B. The data set is described as above. Format: cell-based. To be noted: Homo sapiens, BEAS-2B, nonmalignant cells, 48 h. As to the method:
as §1, §2, §3, §4, §5

Data set [8] deals with 184B5. In words: MTT cytotoxicity in nonmalignant mammary gland derived cells. Format: cell-based. As to the method:
as §1, §2, §3, §4, §5

Assay in data set [9]: as above
Format: cell-based. To be noted: human. As to the method:
as §1, §2, §3, §4, §5

Take `O=C(Nc1ccc([Se][Se]c2ccc(NC(=O)c3ccccc3)cc2)cc1)c1ccccc1` [I.1a]: the activity at 10 µM in data set [1] was 103%; in data set [2], 79.7%; in data set [3] it was 82.6%.
In general, GI50 refers to the concentration that inhibits growth by half. The LC50 is the concentration lethal to half of the exposed cells or organisms. As to `O=C(Nc1ccc([Se][Se]c2ccc(NC(=O)c3ccc(Cl)cc3)cc2)cc1)c1ccc(Cl)cc1` [I.1b], the CC50 in data set [4] (HTB-54, 48 h, read-out: LC50 HTB54) was more than 100 µM; in data set [1] (read-out: LC50 CCRF-CEM) it was more than 100 µM; in [2] (read-out: LC50 MCF-7) it was more than 100 µM; in data set [3] (read-out: LC50 HT-29), more than 100 µM. In addition, the GI50 was more than 100 µM in [4] (HTB-54, 48 h, average ± SEM, read-out: GI50 HTB54); 7.7 ± 2.2 µM in [5] (PC-3, 48 h, average ± SEM, read-out: GI50 PC-3); 1.11 µM in [7] (read-out: GI50 BEAS-2B); 7.08 µM in [8] (Homo sapiens, 184B5, nonmalignant cells, 48 h, read-out: GI50 184B5); 9 ± 1.6 µM in [1] (read-out: GI50 CCRF-CEM); 4.6 ± 0.5 µM in data set [2] (read-out: GI50 MCF-7, 48 h, average ± SEM). Moreover, the GI50 in [3] (read-out: GI50 HT-29) amounted to 3 ± 1.8 µM. Further, the IC (TGI) in data set [4] (HTB-54, 48 h, average ± SEM, read-out: TGI HTB54) is more than 100 µM; in data set [5] (PC-3, 48 h, average ± SEM, read-out: TGI PC-3), more than 100 µM; in data set [7] (read-out: TGI BEAS-2B), 42.8 µM; in [8] (Homo sapiens, 184B5, nonmalignant cells, 48 h, read-out: TGI 184B5), more than 100 µM; in [1] (read-out: TGI CCRF-CEM), 72.6 ± 1.1 µM; in data set [2] (read-out: TGI MCF-7) it was more than 100 µM. For the same compound, the IC (TGI) in data set [3] (read-out: TGI HT-29) came to 7.7 ± 0.6 µM. In addition, the LC50 in data set [5] (PC-3, 48 h, read-out: LC50 PC-3) is more than 100 µM. The LC50 (50% lethal concentration) at 48 h in data set [6] and in [9] was more than 100 µM each time. Besides, the “Selectivity index (SI) = GI50 (184B5)/GI50 (MCF-7)” value in data set [8] (breast) is 1.57. Besides, the activity at 10 µM is 45.5% in data set [1], 19.8% in data set [2] and -10.7% in [3].
On to `COc1ccc(C(=O)Nc2ccc([Se][Se]c3ccc(NC(=O)c4ccc(OC)cc4)cc3)cc2)cc1` [I.1c], for which the activity at 10 µM stood at 57.5% in data set [1], 79% in [2] and 81.4% in data set [3].
`N#Cc1ccc(C(=O)Nc2ccc([Se][Se]c3ccc(NC(=O)c4ccc(C#N)cc4)cc3)cc2)cc1` [I.1d]: the activity at 10 µM in data set [1] came out at 101%; in data set [2] it was 79.1%; in [3], 109%.
Taken in the same sequence, the figures for `O=C(Nc1ccc([Se][Se]c2ccc(NC(=O)c3cccs3)cc2)cc1)c1cccs1` [I.1i] were 100%, 104% and 98.2%.
The matching figures for `O=C(Nc1ccc([Se][Se]c2ccc(NC(=O)c3ccno3)cc2)cc1)c1ccno1` [I.1j]: 112%, 92.2% and 98.9%.
Consider `O=C(Nc1ccc([Se][Se]c2ccc(NC(=O)C34CC5CC(CC(C5)C3)C4)cc2)cc1)C12CC3CC(CC(C3)C1)C2` [I.1k], for which the activity at 10 µM in [1] was 90.2%; in [2] it was 88%; in data set [3] it was 97.1%.
`O=C(/C=C/c1ccccc1)Nc1ccc([Se][Se]c2ccc(NC(=O)/C=C/c3ccccc3)cc2)cc1` [I.1l]: the activity at 10 µM in data set [1] is 50%; in [2] it was 76.7%; in [3], 93%.
Turning to `O=C(Nc1ccc([Se][Se]c2ccc(NC(=O)c3cccc4ccccc34)cc2)cc1)c1cccc2ccccc12` [I.1m], the figures for the activity at 10 µM in data set [1], in [2] and in data set [3] were 74.4%, 75.5% and 78.8%, respectively.
On to `N#C[Se]c1ccc(NC(=O)c2ccccc2)cc1` [I.2a], for which the activity at 10 µM in data set [1] was 103%; in data set [2] it was 63.7%; in [3], 71.6%.
For the compound `COc1ccc(C(=O)Nc2ccc([Se]C#N)cc2)cc1` [I.2c], the activity at 10 µM was 76.5% in data set [1], 97.8% in [2] and 93.3% in data set [3].
On to `N#C[Se]c1ccc(NC(=O)c2ccc(C#N)cc2)cc1` [I.2d], for which the activity at 10 µM in data set [1] amounted to 115%; in [2], 74.3%; in data set [3], 105%.
Regarding `Cc1ccc(C(=O)Nc2ccc([Se]C#N)cc2)cc1` [I.2g], the activity at 10 µM in data set [1] was 94.3%; in data set [2], 70.4%; in data set [3] it was 94.1%.
The matching figures for `N#C[Se]c1ccc(NC(=O)C23CC4CC(CC(C4)C2)C3)cc1` [I.2k]: 107%, 113% and 99.7%.
In the case of `N#C[Se]c1ccc(NC(=O)/C=C/c2ccccc2)cc1` [I.2l], the activity at 10 µM is 62% in data set [1], 65% in data set [2] and 76% in data set [3].
Turning to `N#C[Se]c1ccc(NC(=O)c2cccc3ccccc23)cc1` [I.2m], the activity at 10 µM was determined as 70.9% in data set [1], 101% in data set [2] and 101% in data set [3].
On to `CSc1ccc(C(=O)Nc2ccc([Se]C#N)cc2)cc1` [I.2n], for which the activity at 10 µM in [1] turned out to be 100%; in data set [2], 69.5%; in data set [3] it was 101%.
With `O=P(Nc1ccc([Se][Se]c2ccc(NP(=O)(Oc3ccccc3)Oc3ccccc3)cc2)cc1)(Oc1ccccc1)Oc1ccccc1` [II.1c], the activity at 10 µM in data set [1] was 85.2%; in data set [2] it was 94%; in data set [3], 109%.
Regarding `O=P(Nc1ccccc1)(Nc1ccc([Se][Se]c2ccc(NP(=O)(Nc3ccccc3)Oc3ccccc3)cc2)cc1)Oc1ccccc1` (stereo not shown) [II.1f], the values for the activity at 10 µM in [1], in data set [2] and in data set [3] were 125%, 90% and 106%, respectively.
Consider `Cc1ccc(OP(=O)(Nc2ccc([Se][Se]c3ccc(NP(=O)(Oc4ccc(C)cc4)Oc4ccc(C)cc4)cc3)cc2)Oc2ccc(C)cc2)cc1` [II.1g], for which the activity at 10 µM in [1] stood at 111%; in [2], 82.6%; in [3] it was 104%.
The matching figures for `N#C[Se]c1ccc(NP(=O)(Oc2ccccc2)Oc2ccccc2)cc1` [II.2c]: 81.9%, 114% and 116%.
Taken in the same sequence, the figures for `N#C[Se]c1ccc(NP(=O)(Nc2ccccc2)Oc2ccccc2)cc1` (stereo not shown) [II.2f] were 22.3%, 61.4% and 64.6%.
As to `Cc1ccc(OP(=O)(Nc2ccc([Se]C#N)cc2)Oc2ccc(C)cc2)cc1` [II.2g], the activity at 10 µM in [1] was 108%; in data set [2], 75.6%; in data set [3], 99.1%.
